Consider 35 molecules from the Kinase Knowledgebase extract (Sharma et al. 2016).

Structures are written as SMILES. pIC50: −log10 of the molar value. A value given as a limit tells only on which side of the number the result lay.

The target in assay [1] is MAPK14 (human) (UniProt Q16539). Kind of assay: Cell-Based Assay. The following applies: a375.
The target in assay [2] is EGFR (human) (UniProt P00533).
Assay [3] addresses MAPK14 (human) (UniProt Q16539). Put plainly: Cellular Inhibition of MAPK14 Kinase in A549 Cells.
For assay [4], the target named is EGFR (human) (UniProt P00533). The source holds these as a separate data set.
For assay [5], the target named is EGFR (human) (UniProt P00533). Particulars: a431.
For assay [6], the target named is EGFR (human) (UniProt P00533). The following applies: a431. The source holds these as a separate data set.
The target of assay [7] is EGFR (UniProt P00533).
The target in assay [8] is EGFR (human) (UniProt P00533). The following applies: a431. The source holds these as a separate data set.
The target of assay [9] is EGFR (human) (UniProt P00533). The source holds these as a separate data set.
The target of assay [10] is EGFR (UniProt P00533). This is another data set of the same source.
In assay [11] the target is EGFR (human) (UniProt P00533). The source holds these as a separate data set.
The target in assay [12] is EGFR (human) (UniProt P00533). The following applies: a431. The source holds these as a separate data set.
Assay [13] concerns the target EGFR (human) (UniProt P00533). The following applies: a431. This is another data set of the same source.
Assay [14] deals with EGFR (human) (UniProt P00533). This is another data set of the same source.
Assay [15] addresses EGFR (human) (UniProt P00533). The following applies: a431. This is another data set of the same source.
The target of assay [16] is EGFR (human) (UniProt P00533). The following applies: a431. This is another data set of the same source.
Assay [17] deals with PIK3CA (human) (UniProt P42336). Put plainly: Assesment of Cell Proliferation of IGROV-1 Cells Using SRB Assay.
The target is the same in assay [18]. Kind of assay: Inhibition of PIK3CA Kinase Activity.
Assay [19] deals with EGFR (human) (UniProt P00533). The following applies: a549.
Assay [20] deals with EGFR (human) (UniProt P00533). The following applies: kb.
Assay [21] has as its target PIK3CA (human) (UniProt P42336). Kind of assay: Assessment of PIK3CA Kinase Activity in NZOV9 Cells.
For assay [22], the target named is PIK3CB;PIK3CG;PIK3CD;PIK3CA (human) (UniProt P48736). Put plainly: Assessment of PIK3CA/PIK3CB/PIK3CD/PIK3CG Kinase Activity.

Chain of PIK3CA (human) (P42336 whole entry, looked up): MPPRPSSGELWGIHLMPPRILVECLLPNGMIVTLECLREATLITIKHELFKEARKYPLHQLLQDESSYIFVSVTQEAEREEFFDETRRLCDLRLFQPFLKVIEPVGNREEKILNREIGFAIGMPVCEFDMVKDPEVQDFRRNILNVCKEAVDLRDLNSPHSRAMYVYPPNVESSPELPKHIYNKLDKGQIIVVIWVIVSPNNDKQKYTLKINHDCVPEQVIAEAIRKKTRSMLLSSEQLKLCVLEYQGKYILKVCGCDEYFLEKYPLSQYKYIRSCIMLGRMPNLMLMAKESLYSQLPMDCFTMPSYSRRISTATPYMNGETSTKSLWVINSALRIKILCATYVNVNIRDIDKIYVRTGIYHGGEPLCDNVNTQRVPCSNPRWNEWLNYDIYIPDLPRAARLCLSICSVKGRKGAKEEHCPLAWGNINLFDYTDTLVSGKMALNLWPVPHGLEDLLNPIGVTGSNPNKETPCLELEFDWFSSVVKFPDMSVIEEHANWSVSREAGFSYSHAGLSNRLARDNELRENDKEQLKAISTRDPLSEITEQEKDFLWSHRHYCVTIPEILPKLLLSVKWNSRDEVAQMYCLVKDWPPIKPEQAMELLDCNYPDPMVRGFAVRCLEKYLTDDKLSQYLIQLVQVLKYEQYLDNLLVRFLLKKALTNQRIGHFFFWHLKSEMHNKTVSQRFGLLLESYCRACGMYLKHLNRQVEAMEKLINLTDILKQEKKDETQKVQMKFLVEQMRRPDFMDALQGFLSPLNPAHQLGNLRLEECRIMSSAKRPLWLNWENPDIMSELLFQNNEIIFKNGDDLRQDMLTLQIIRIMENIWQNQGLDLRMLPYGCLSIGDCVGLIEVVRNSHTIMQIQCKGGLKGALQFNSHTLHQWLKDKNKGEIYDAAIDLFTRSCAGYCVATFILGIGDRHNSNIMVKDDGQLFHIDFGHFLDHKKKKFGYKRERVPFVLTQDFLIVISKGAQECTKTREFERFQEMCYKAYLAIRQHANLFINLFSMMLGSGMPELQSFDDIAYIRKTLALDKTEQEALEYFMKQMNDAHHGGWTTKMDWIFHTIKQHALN
Chain of EGFR (P00533 whole entry, looked up): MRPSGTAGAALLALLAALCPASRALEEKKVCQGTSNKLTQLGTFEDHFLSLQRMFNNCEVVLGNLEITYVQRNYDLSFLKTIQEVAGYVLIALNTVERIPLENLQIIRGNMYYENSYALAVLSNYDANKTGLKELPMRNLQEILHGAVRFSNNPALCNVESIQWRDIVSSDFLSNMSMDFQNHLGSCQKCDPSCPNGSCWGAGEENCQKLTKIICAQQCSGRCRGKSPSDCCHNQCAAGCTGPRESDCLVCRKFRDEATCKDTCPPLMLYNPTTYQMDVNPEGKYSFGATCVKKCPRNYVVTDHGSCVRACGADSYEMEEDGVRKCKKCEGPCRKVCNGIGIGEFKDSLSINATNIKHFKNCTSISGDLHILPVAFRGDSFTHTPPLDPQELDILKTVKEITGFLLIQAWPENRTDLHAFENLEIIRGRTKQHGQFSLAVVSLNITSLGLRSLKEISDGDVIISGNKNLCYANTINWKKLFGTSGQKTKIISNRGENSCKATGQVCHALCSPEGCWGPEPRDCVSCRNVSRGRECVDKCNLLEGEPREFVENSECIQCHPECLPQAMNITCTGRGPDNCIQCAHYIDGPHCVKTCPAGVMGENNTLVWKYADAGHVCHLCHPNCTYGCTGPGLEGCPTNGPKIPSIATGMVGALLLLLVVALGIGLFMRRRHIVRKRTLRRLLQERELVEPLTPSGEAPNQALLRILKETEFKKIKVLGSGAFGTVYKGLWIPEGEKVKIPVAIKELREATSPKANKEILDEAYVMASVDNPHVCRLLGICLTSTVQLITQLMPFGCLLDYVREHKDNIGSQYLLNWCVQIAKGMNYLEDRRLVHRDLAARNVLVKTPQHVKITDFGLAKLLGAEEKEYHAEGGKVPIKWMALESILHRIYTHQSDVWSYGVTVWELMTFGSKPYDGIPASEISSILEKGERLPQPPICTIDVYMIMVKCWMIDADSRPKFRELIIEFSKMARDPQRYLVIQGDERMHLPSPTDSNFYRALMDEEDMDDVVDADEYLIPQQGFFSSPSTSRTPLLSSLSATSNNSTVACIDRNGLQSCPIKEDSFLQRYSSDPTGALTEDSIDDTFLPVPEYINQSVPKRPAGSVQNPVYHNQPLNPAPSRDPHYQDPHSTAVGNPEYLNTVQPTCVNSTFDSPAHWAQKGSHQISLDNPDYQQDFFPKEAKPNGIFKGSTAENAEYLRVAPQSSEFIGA
Chain of EGFR (human) (P00533 whole entry, looked up): as above
Chain of MAPK14 (human) (Q16539 whole entry, looked up): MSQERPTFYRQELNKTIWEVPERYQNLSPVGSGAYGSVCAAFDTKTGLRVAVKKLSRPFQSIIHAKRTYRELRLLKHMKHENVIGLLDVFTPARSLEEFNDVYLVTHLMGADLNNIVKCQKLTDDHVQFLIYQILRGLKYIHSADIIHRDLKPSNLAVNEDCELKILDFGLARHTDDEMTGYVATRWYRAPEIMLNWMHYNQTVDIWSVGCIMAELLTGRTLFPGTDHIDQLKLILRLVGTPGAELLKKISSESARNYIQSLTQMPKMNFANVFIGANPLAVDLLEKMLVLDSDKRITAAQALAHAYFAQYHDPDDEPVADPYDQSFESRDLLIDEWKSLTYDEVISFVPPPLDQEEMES

One may read the pIC50 as the IC50 on a negative log10 scale, so that one unit is a factor of ten. On MAPK14 (human) [1], `CCCS(=O)(=O)Nc1ccc(F)c(C(=O)c2c[nH]c3ncc(Cl)cc23)c1F` gave a pIC50 below 5.00.

Consider `C=CC(=O)N1CCC[C@H](n2cnc3c(N)nc(Nc4ccc(N5CCCCC5)cc4)nc32)C1`, for which the pIC50 at EGFR (human) [2] is 6.46.

`COC(=O)N[C@@H](C)CNc1nccc(-c2cn(C(C)C)nc2-c2cc(Cl)cc(NS(C)(=O)=O)c2F)n1` gave a pIC50 against MAPK14 (human) [3] of 5.66.

In turn, `CN(C)CCOc1ccc(-c2nc(-c3ccc4c(c3)CC/C4=N\O)c(-c3ccncc3)[nH]2)cc1` had a pIC50 at MAPK14 (human) [1] below 5.00.

On MAPK14 (human) [3], `COC(=O)NC[C@H](C)Nc1nccc(-c2cn(C(C)C)nc2-c2cc(Cl)cc(NS(C)(=O)=O)c2F)n1` showed a negative logarithm of the IC50 (pIC50) of 6.16.

Consider `C#CCCCN1CCN(Cc2c(C)ncnc2Nc2ccc(OCc3cccc(F)c3)c(Cl)c2)CC1`, for which, on EGFR (human) [4], the pIC50 is 8.05.

For `C=C(CN1CCOCC1)C(=O)Nc1ccc2ncnc(Nc3cccc(Br)c3)c2c1`, at EGFR (human) [5], the pIC50 was 6.89.

Molecule `CCOc1cc2ncc(C#N)c(Nc3ccc(OCc4ccccn4)c(Cl)c3)c2cc1NC(=O)/C=C/[C@@H]1C[C@@H](O)CN1C` gave a pIC50 against EGFR (human) [6] of 7.44.

`CCOc1cc2ncc(C#N)c(Nc3ccc(OCc4ccccn4)c(Cl)c3)c2cc1NC(=O)/C=C/[C@@H]1CCCN1`: at EGFR (human) [6], the pIC50 was 8.52.

`O=[N+]([O-])c1ccc2ncnc(Nc3cccc(Br)c3)c2c1` had a pIC50 on EGFR [7] of 6.05.

In general, GI50 refers to the concentration that inhibits growth by half. Low readings indicate greater sensitivity of the cells, high ones lower sensitivity of the cells. `C=C=CCCCOc1cc2c(Nc3ccc(F)c(Cl)c3)ncnc2cc1OC` showed a GI50 with EGFR (human) [8] of 268 nM.

For the molecule `CCOc1cc2ncnc(Nc3ccc(F)c(Cl)c3)c2cc1NC(=O)/C=C/[C@H]1CCCN1C`, the pIC50 against EGFR (human) [6] was 8.10.

With `C=CC(=O)N1CCC[C@H](n2cnc3c(N)nc(Nc4ccc(OCCOC)cc4)nc32)C1`, the pIC50 against EGFR (human) [2] was 6.98.

In turn, `C#Cc1cccc(Nc2ncnc3cc(OC)c(OCCCCCCC(=O)O)cc23)c1` showed a pIC50 against EGFR (human) [9] of at least 7.00.

Consider `COc1cc2ncnc(N(C)c3ccccc3)c2cc1OC`, for which the pIC50 on EGFR [10] is 5.40.

Take `CN(c1ccc(N2CCOCC2)cc1)c1ncnc2nc(Nc3ccc(S(N)(=O)=O)cc3)sc12`: on EGFR (human) [11], the pIC50 is 5.48.

Turning to `CCOc1ccc(-c2cc(C(F)(F)F)c(C#N)c(SCC(=O)NCC(=O)O)n2)cc1`, the pIC50 on EGFR (human) [12] was below 4.30.

For the molecule `FC(F)(F)c1cccc(Nc2ncnc3[nH]c(Cc4ccc(Cl)cc4Cl)cc23)c1`, the pIC50 on EGFR (human) [13] was 3.70.

As to `C=CC(=O)N1CCC[C@H](n2cnc3c(N)nc(Nc4ccc(N5CCOCC5)cc4)nc32)C1`, the pIC50 at EGFR (human) [2] is 6.22.

As to `O=S(=O)(CCNCCCc1ccc(-c2ccc3ncnc(Nc4ccc(OCc5ccccc5)c(Cl)c4)c3c2)o1)c1ccccc1`, the negative logarithm of the IC50 (pIC50) at EGFR (human) [14] was 7.30.

Regarding `Ic1cccc(Nc2ncnc3ccccc23)c1`, the pIC50 on EGFR [7] is 7.10.

As for `Cc1ccccc1Cc1cc2c(Nc3ccc(Cl)cc3F)nc(N)nc2[nH]1`, the pIC50 at EGFR (human) [15] and against EGFR (human) [16] was below 3.70 each time.

As for `CS(=O)(=O)Nc1cccc(-c2cc(OCc3ccccn3)nc(N3CCOCC3)n2)c1`, in the assay with PIK3CA (human) [17], the GI50 was 16000 nM. This molecule also showed a pIC50 against PIK3CA (human) [18] below 5.00.

Regarding `OC[C@@H]1CCCN1Cc1ccc(Nc2nc3ncnc(Nc4ccc(F)c(Cl)c4)c3s2)cc1`, the pIC50 on EGFR (human) [11] is 7.96.

`O=C(Cc1ccc(F)cc1)Nc1cc(SC[C@@H](O)CO)cc([N+](=O)[O-])c1` had a pIC50 against EGFR (human) [12] of 4.54.

Turning to `COc1cc(O)c2c(=O)n(-c3cccc(C(=O)N4CCCCC4)c3)ccc2c1NC(=O)Nc1ccc(C(=O)N2CCN(C)CC2)cc1`, the pIC50 against EGFR (human) [19] was below 4.00.

Turning to `Nc1nc(Nc2ccc(Cl)cc2Br)c2cc(Cc3ccc(Cl)cc3Cl)[nH]c2n1`, the pIC50 against EGFR (human) [13] was 4.79.

Take `FC(F)(F)c1cccc(Nc2ncnc3ccccc23)c1`: the pIC50 against EGFR [7] is 6.24.

At EGFR (human) [20], `COc1cc2ncnc(Nc3cccc(Cl)c3F)c2cc1O[C@H]1CCN(C)[C@H](C(N)=O)C1` gave a pIC50 of 7.25.

Regarding `Cc1ccc([N+](=O)[O-])cc1S(=O)(=O)N(C)N=Cc1cnn2cccc(C)c12`, the pIC50 against PIK3CA (human) [21] was below 4.70.

Molecule `COc1cnc2[nH]c3cnc(-c4cccnc4)cc3c2c1-c1ccc(NS(C)(=O)=O)cc1` had a pIC50 in assay [22] of 7.00 to 9.00.

Molecule `C#Cc1cc(Nc2ncnc3cc(OC)c(OCCCCCCC(=O)O)cc23)ccc1O` showed a pIC50 at EGFR (human) [9] of at least 7.00.

For the molecule `CNc1nccc(-c2cn(C(C)C)nc2-c2cc(Cl)cc(NS(C)(=O)=O)c2F)n1`, the pIC50 at MAPK14 (human) [3] was 4.77.

As to `Cc1ccccc1Cc1cc2c(Nc3ccc(Cl)cc3)nc(N)nc2[nH]1`, the pIC50 on EGFR (human) [15] is 6.62; against EGFR (human) [16] it was 5.25.

Consider `Oc1cccc(-c2c(F)cnc3[nH]c4cnc(-c5cccnc5)cc4c23)c1`, for which the pIC50 in assay [22] is 6.00 to 7.00.
